From publication PMC7738871, “Covalent modification of Keap1 at Cys77 and Cys434 by pubescenoside a suppresses oxidative stress-induced NLRP3 inflammasome activation in myocardial ischemia-reperfusion injury” (Theranostics, 2021)

Tests used:
Keap1 C226S = target: T1, Keap1 C226S (Homo sapiens, UniProt Q14145, C226S); experiment: ITC titration of PBA with Keap1-C226S; format: binding; conditions: 25 ℃
T1 construct: His (N); made in house; host or cells: E. coli BL21 (DE3)
Experimental: (§1) The Keap1 was amplified by PCR using a human cDNA library, and was subcloned into the vector pET28-TEV, which contained one tobacco etch virus (TEV) protease cleavage site at the upstream multiple cloning site. The protein was expressed in E. coli BL21 (DE3) cells and incubated at 37 °C until the OD600 value reached 0.6, using 0.2 mM isopropyl β-D-1-thiogalactopyranoside (IPTG) overnight induction at 18 °C. The cells were isolated by centrifugation, resuspended in ice-cold lysis buffer and lysed by cryogenic overpressure cell breaker at 1,200 psi. The lysates were centrifuged for 60 min at 14,000 rpm to obtain the supernatant. Gravity flow purification of Keap1 protein was obtained at room temperature using 1 mL of Ni-NTA and eluted in buffer containing 250 mM imidazole, followed by 1 mL of HiTrap QHP for the second step purification. The final protein was purified and validated by Superdex 200 10/300GL resin.
(§2) The mutant plasmid DNA was obtained by PCR. The PCR products were cleaved by DpnI restriction enzymes. The restriction endonuclease-cleaved mixture was subsequently transformed into E. coli DH5α. Colonies were evaluated by colony PCR and sequenced. The mutant plasmid was transformed into E. coli BL21 (DE3) after successful sequencing. The steps for expression and purification of all recombinants were described above.
(§3) Isothermal calorimetry (ITC) titration experiments were performed at 25 °C. WT Keap1, Keap1 mutants and PBA were dissolved in binding buffer (40 mM Tris-HCl pH 8.0, 250 mM NaCl). In a typical experiment, 60 μL of PBA (1 mM) was injected 19 times at 2-min intervals from a stirring syringe into the sample cell containing 300 μL of WT protein or mutants (30 μM). The first injection was 0.4 μL of PBA, and the subsequent 18 injections were 2 μL each time. The site-binding models were determined by using MicroCal Origin software.

Keap1 C38S = target: T2, Keap1 C38S (Homo sapiens, UniProt Q14145, C38S); experiment: ITC titration of PBA with Keap1-C38S; format: binding; conditions: 25 ℃
T2 construct: His (N); made in house; host or cells: E. coli BL21 (DE3)
T2 sequence (Q14145 whole entry C38S): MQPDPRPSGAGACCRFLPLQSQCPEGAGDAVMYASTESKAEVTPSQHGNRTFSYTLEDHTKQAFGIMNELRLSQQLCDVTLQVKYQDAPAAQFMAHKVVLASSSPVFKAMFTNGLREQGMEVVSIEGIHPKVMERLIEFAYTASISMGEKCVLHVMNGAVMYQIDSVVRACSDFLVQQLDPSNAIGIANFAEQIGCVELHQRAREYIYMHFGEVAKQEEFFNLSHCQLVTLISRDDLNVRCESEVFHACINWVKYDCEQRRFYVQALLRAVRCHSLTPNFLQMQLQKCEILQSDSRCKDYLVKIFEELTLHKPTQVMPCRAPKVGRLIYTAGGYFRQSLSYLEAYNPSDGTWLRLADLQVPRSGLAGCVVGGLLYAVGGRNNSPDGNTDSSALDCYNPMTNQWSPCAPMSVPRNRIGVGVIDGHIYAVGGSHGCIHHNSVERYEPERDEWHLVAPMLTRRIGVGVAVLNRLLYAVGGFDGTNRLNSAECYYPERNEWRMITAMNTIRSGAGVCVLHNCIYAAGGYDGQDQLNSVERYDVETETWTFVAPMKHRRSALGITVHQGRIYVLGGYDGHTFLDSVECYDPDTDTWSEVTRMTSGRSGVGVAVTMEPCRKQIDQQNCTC
Experimental: as §1, §2, §3

[1] = system: Keap1-dependent Nrf2 ubiquitination; experiment: Keap1-dependent Nrf2 ubiquitination in 293T cells; format: cell-based, human
Experimental: Alkylation of the BTB domain of Keap1 by covalent modifiers contributes to the disruption of the Keap1-Cul3 interactions, leading to Nrf2 activation. Next, we investigated the effect of PBA on the modulation of Nrf2 ubiquitination as Nrf2 stability is controlled by ubiquitin-mediated proteasomal degradation. First, 3X Flag-Keap1, Myc-Nrf2 and Ub plasmids were transfected into 293T cells and then, the cells were treated with 30 μM PBA for 20 h and 5 μM MG132 for another 4 h. Cell lysates were pulled down using anti-Myc beads, and immunopurified Nrf2 was examined for the occurrence of Ub by western blotting. […] As shown in Figure 6E-F, PBA could disrupt the interaction of Keap1 and Cul3 in WT-Keap1 cells, while the disruption was blocked in the Cys77S and Cys434-Keap1 mutant cells.
Figure 6 PBA suppresses Keap1-mediated ubiquitination of Nrf2 by disrupting the interaction between Cul3 and Keap1. (A and B) PBA suppressed Nrf2 ubiquitination in a Keap1-Cys77 and C434-dependent manner. First, 293T cells were transfected with WT-Keap1 or C77S and C434S-Keap1, Myc-Nrf2, and Ub plasmids for 24 h and treated with 30 μM PBA. The cell lysates were immunoprecipitated using anti-Myc beads, and the ubiquitination level was evaluated using the anti-Ub antibody. (C and D) PBA induced the dissociation of the Nrf2-Keap1 complex. Then, 293T cells were cotransfected with WT-Keap1 and Flag-Nrf2 plasmids for 24 h and treated with 30 μM PBA for 12 h. The cell lysates were immunoprecipitated with the anti-Flag antibody, and the level of Nrf2 was assessed using the anti-Nrf2 antibody. (E and F) PBA disrupted the interaction between Cul3 and Keap1. […] The cell lysates were immunoprecipitated with the anti-Flag antibody, and the level of Cul3 was measured using the anti-Cul3 antibody. #p < 0.05, ##p < 0.01, ###p < 0.001, the control vs DMSO; *p < 0.05,**p < 0.01, ***p < 0.001, PBA or tBHQ vs DMSO. […] Cell viability was measured by MTT assays. #p < 0.05, ###p < 0.001, the control vs OGD/R; **p < 0.01, ***p < 0.001, OGD/R+PBA vs OGD/R.

Keap1 WT = target: T3, Keap1 WT (Homo sapiens, UniProt Q14145); experiment: ITC titration of PBA with Keap1-WT; format: binding; conditions: 25 ℃
T3 construct: His (N); made in house; host or cells: E. coli BL21 (DE3)
T3 sequence (Q14145 whole entry): as the sequence (Q14145 whole entry C38S) above, with S38C counted along it
Experimental: as §1, §3

T1 sequence (Q14145 whole entry C226S): as the sequence (Q14145 whole entry C38S) above, with S38C, C226S counted along it

Structure (SMILES): C=C(COC(=O)C=Cc1ccc(O)c(O)c1)C(O)COC1OC(CO)C(O)C(O)C1O (stereo not shown) [PBA, pubescenoside A]
- Kd (Keap1 C226S): 8.12 µM
- T△S (Keap1 C226S): 1.84 ± 0.00 kcal/mol
- △G (Keap1 C226S): -6.95 ± 0.00 kcal/mol
- △H (Keap1 C226S): -5.11 ± 0.279 kcal/mol
- Kd (Keap1 C38S): 8.59 µM
- T△S (Keap1 C38S): 2.32 ± 0.00 kcal/mol
- △H (Keap1 C38S): -4.59 ± 0.199 kcal/mol
- Keap1-dependent Nrf2 ubiquitination ([1]; WT Keap1, 30 μM PBA 20 h, 5 μM MG132 4 h): significantly suppressed
- protection of Nrf2 from ubiquitination with mutant Keap1 ([1]; mutant Cys77S and Cys434S-Keap1 vectors): unable to protect Nrf2 from ubiquitination
- Kd (Keap1 WT): 2.61 µM
- T△S (Keap1 WT): 4.31 ± 0.00 kcal/mol
- △G (Keap1 WT): -7.62 ± 0.00 kcal/mol
- △H (Keap1 WT): -3.31 ± 0.199 kcal/mol
